Source: patent US20260293894A1, “FUSED PYRROLIDINE-2-ONE HERBICIDAL COMPOUNDS” (SYNGENTA CROP PROTECTION AG, priority 2023, published 2026)

Tests used:
Assay type in all cases: in vivo
Conditions in all cases: 1000 g/Ha, evaluated after 13 days, glasshouse
[1] = test system: Amaranthus retroflexus (AMARE); test: Pre-emergence herbicidal activity, percentage damage to AMARE
Description: (§1) Seeds of a variety of test species are sown in standard soil in pots Amaranthus palmeri (AMAPA), Amaranthus retroflexus (AMARE), Setaria faberi (SETFA), Echinochloa crus-galli (ECHCG), Ipomoea hederacea (IPOHE),). After cultivation for one day (pre-emergence) or after 8 days cultivation (post-emergence) under controlled conditions in a glasshouse (at 24/160C, day/night; 14 hours light; 65% humidity), the plants are sprayed with an aqueous spray solution derived from the dissolution of the technical active ingredient in a small amount of acetone and a special solvent and emulsifier mixture referred to as IF50 (11.12% Emulsogen EL360 TM+44.44% N-methylpyrrolidone+44.44% Dowanol DPM glycol ether, which was then diluted to required concentration using 0.2% Genapol XO80 (CAS No. 9043-30-5) in water as the diluent. Compounds are applied at the rates stated. The test plants are then grown in a glasshouse under controlled conditions in a glasshouse (at 24/160C, day/night; 14 hours light; 65% humidity) and watered twice daily. After 13 days for pre and post-emergence, the test is evaluated for the percentage damage caused to the plant. The biological activities are shown in the following table on a five-point scale (5=81-100%; 4=61-80%; 3=41-60%; 2=21-40%; 1=0-20%; NT=not tested).

[2] = test system: Echinochloa crus-galli (ECHCG); test: Post-emergence herbicidal activity, percentage damage to ECHCG
Description: as §1

[3] = test system: Amaranthus palmeri (AMAPA); test: Post-emergence herbicidal activity, percentage damage to AMAPA
Description: as §1

[4] = test system: Ipomoea hederacea (IPOHE); test: Pre-emergence herbicidal activity, percentage damage to IPOHE
Description: as §1

[5] = test system: Ipomoea hederacea (IPOHE); test: Post-emergence herbicidal activity, percentage damage to IPOHE
Description: as §1

[6] = test system: Amaranthus palmeri (AMAPA); test: Pre-emergence herbicidal activity, percentage damage to AMAPA
Description: as §1

[7] = test system: Setaria faberi (SETFA); test: Pre-emergence herbicidal activity, percentage damage to SETFA
Description: as §1

[8] = test system: Setaria faberi (SETFA); test: Post-emergence herbicidal activity, percentage damage to SETFA
Description: as §1

[9] = test system: Echinochloa crus-galli (ECHCG); test: Pre-emergence herbicidal activity, percentage damage to ECHCG
Description: as §1

[10] = test system: Amaranthus retroflexus (AMARE); test: Post-emergence herbicidal activity, percentage damage to AMARE
Description: as §1

SMILES	percentage damage caused to the plant (AMARE) [1]	percentage damage caused to the plant (ECHCG) [2]	percentage damage caused to the plant (AMAPA) [3]	percentage damage caused to the plant (IPOHE) [4]	percentage damage caused to the plant (IPOHE) [5]	percentage damage caused to the plant (AMAPA) [6]	percentage damage caused to the plant (SETFA) [7]	percentage damage caused to the plant (SETFA) [8]	percentage damage caused to the plant (ECHCG) [9]	percentage damage caused to the plant (AMARE) [10]
O=C(O)C[C@@H]1[C@@H]2C[C@@H]2C(=O)N1Cc1cccc(F)c1F (relative stereo) [A.01, 2-[(1R*,2R*,5S*)-3-[(2,3-difluorophenyl)methyl]-4-oxo-3-azabicyclo[3.1.0]hexan-2-yl]acetic acid]	4 (61-80%)	4 (61-80%)	2 (21-40%)	2 (21-40%)	3 (41-60%)	2 (21-40%)	5 (81-100%)	5 (81-100%)	4 (61-80%)	4 (61-80%)
O=C(O)C[C@@H]1[C@@H]2C[C@@H]2C(=O)N1Cc1cccc(F)c1 (relative stereo) [A.64, 2-[(1R*,2R*,5S*)-3-[(3-fluorophenyl)methyl]-4-oxo-3-azabicyclo[3.1.0]hexan-2-yl]acetic acid]	5 (81-100%)	3 (41-60%)	3 (41-60%)	4 (61-80%)	3 (41-60%)	4 (61-80%)	5 (81-100%)	5 (81-100%)	4 (61-80%)	4 (61-80%)
O=C(O)C[C@@H]1[C@@H]2C[C@@H]2C(=O)N1Cc1ccc(F)c(Cl)c1 (relative stereo) [A.82, 2-[(1R*,2R*,5S*)-3-[(3-chloro-4-fluoro)methyl]-4-oxo-3-azabicyclo[3.1.0]hexan-2-yl]acetic acid]	2 (21-40%)	1 (0-20%)	1 (0-20%)	1 (0-20%)	2 (21-40%)	2 (21-40%)	4 (61-80%)	4 (61-80%)	1 (0-20%)	2 (21-40%)
O=C(O)C[C@@H]1[C@@H]2C[C@@H]2C(=O)N1Cc1ccc(Cl)cc1F (relative stereo) [A.76, 2-[(1R*,2R*,5S*)-3-[(2-fluoro-4-chloro)methyl]-4-oxo-3-azabicyclo[3.1.0]hexan-2-yl]acetic acid]	1 (0-20%)	1 (0-20%)	1 (0-20%)	4 (61-80%)	2 (21-40%)	3 (41-60%)	3 (41-60%)	3 (41-60%)	1 (0-20%)	1 (0-20%)
